Data on 27 compounds can be found in patent US10919911B2, “Tricyclic ASK1 inhibitors” (Terns, Inc., priority 2018, dated 2021).

Sequence of ASK1 kinase (Q99683 whole entry): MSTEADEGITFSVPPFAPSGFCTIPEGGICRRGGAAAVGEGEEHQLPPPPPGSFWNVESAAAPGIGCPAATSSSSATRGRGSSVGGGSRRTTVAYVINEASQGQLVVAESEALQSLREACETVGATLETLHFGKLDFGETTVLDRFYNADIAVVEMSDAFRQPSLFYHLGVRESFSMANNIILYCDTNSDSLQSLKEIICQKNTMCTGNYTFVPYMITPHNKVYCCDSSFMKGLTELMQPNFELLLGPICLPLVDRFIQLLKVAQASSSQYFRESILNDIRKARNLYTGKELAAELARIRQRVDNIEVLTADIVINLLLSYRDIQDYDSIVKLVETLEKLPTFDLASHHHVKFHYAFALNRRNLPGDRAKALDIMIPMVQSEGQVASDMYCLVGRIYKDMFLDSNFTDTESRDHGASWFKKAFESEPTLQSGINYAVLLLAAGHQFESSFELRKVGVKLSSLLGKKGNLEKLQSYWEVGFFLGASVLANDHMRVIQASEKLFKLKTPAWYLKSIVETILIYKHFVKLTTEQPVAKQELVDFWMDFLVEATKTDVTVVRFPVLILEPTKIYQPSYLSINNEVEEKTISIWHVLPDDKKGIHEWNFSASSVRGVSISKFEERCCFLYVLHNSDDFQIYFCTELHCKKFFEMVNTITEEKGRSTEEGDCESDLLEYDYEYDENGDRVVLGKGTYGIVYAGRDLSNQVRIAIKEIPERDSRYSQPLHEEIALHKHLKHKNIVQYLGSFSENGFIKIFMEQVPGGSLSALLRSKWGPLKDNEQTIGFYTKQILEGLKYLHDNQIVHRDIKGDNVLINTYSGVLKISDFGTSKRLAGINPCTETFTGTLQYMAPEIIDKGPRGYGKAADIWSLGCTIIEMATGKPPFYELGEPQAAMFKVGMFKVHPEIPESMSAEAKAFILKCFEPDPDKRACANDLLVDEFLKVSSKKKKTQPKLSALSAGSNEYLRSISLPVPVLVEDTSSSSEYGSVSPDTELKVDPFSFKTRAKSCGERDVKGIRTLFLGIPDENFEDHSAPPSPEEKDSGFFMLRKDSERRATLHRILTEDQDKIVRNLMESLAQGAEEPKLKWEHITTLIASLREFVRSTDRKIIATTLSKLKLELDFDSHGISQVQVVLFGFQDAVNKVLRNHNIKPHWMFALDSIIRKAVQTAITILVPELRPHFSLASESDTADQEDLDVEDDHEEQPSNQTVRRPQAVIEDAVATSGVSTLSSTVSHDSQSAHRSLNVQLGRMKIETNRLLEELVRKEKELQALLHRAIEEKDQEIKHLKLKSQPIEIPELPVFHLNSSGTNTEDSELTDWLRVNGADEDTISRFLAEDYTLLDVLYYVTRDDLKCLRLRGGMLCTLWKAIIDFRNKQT

This assay addresses ASK1 kinase (Homo sapiens (Human), UniProt Q99683). The assay can be described thus: RBC Kinase Assay (33P-ATP radiometric, myelin basic protein substrate). The class given is biochemical. The settings on record: 20 ng ASK1 kinase, MBP substrate, 120 min at room temperature, 1% DMSO. How it is done: Example B1. RBC Kinase Assay Protocol
Base Reaction buffer: 20 mM Hepes (pH 7.5), 10 mM MgCl2, 1 mM EGTA, 0.02% Brij35, 0.02 mg/ml BSA, 0.1 mM Na3VO4, 2 mM DTT, and 1% DMSO were used for the assay.
Myelin base protein (MPB) was prepared in freshly prepared Base Reaction Buffer. 20 ng of ASK1 kinase was delivered into the substrate solution and gently mixed. Compounds in DMSO were delivered into the kinase reaction mixture (final DMSO concentration 1%). Commercially available 33P-ATP was delivered into the reaction mixture to initiate the reaction. The kinase reaction was incubated for 120 min. at room temperature. Reactions were spotted onto P81 ion exchange paper (Whatman #3698-915). Filters were washed extensively in 0.75% Phosphoric acid. Radioactivity on filters was read, and IC50 values were determined.
One may read the IC50 as the midpoint of a concentration-inhibition curve. High values mean weaker potency, low ones greater potency. `Cc1cc(F)c(C(=O)Nc2cccc3c2OCCn2nncc2-3)cc1-n1cnc(C2CC2)c1` [Example 40, 5-(4-cyclopropyl-1H-imidazol-1-yl)-N-(5,6-dihydrobenzo[f][1,2,3]triazolo[1,5-d][1,4]oxazepin-8-yl)-2-fluoro-4-methylbenzamide] gave an IC50 of 0.5 nM.
Next, `Cc1cc(F)c(C(=O)Nc2cccc3c2O[C@H](C)Cn2cnnc2-3)cc1-n1cnc(C2CC2)c1` [Example 34, (R)-5-(4-cyclopropyl-1H-imidazol-1-yl)-2-fluoro-4-methyl-N-(6-methyl-5,6-dihydrobenzo[f][1,2,4]triazolo[4,3-d][1,4]oxazepin-8-yl)benzamide]: 4.1 nM; `CN(C)c1cnc(C(=O)Nc2cccc3c2OCCn2nnnc2-3)cc1-n1cnc(C2CC2)c1` [Example 60, 4-(4-cyclopropyl-1H-imidazol-1-yl)-N-(5,6-dihydrobenzo[f]tetrazolo[1,5-d][1,4]oxazepin-8-yl)-5-(dimethylamino)picolinamide]: 6.9 nM; `Cc1cc(F)c(C(=O)Nc2cccc3c2O[C@@H](C)Cn2cnnc2-3)cc1-n1cnc(C2CC2)c1` [Example 35, (S)-5-(4-cyclopropyl-1H-imidazol-1-yl)-2-fluoro-4-methyl-N-(6-methyl-5,6-dihydrobenzo[f][1,2,4]triazolo[4,3-d][1,4]oxazepin-8-yl)benzamide]: 2.5 nM.
Next, `O=C(Nc1cccc2c1OC[C@@H](CO)n1nnnc1-2)c1cc(-n2cnc(C3CC3)c2)ccn1` [Example 18, (R)-4-(4-cyclopropyl-1H-imidazol-1-yl)-N-(5-(hydroxymethyl)-5,6-dihydrobenzo[f]tetrazolo[1,5-d][1,4]oxazepin-8-yl)picolinamide]: 11.6 nM.
Next, `Cc1cc(F)c(C(=O)Nc2cccc3c2OCC(C)(C)n2cnnc2-3)cc1-n1cnc(C2CC2)c1` [Example 9, 5-(4-cyclopropyl-1H-imidazol-1-yl)-N-(5,5-dimethyl-5,6-dihydrobenzo[f][1,2,4]triazolo[4,3-d][1,4]oxazepin-8-yl)-2-fluoro-4-methylbenzamide]: 5.6 nM.
Compound `Cc1cc(F)c(C(=O)Nc2cccc3c2OC[C@@H](CO)n2nnnc2-3)cc1-n1cnc(C2CC2)c1` [Example 17, (R)-5-(4-cyclopropyl-1H-imidazol-1-yl)-2-fluoro-N-(5-(hydroxymethyl)-5,6-dihydrobenzo[f]tetrazolo[1,5-d][1,4]oxazepin-8-yl)-4-methylbenzamide] returned an IC50 of 10.9 nM.
`CC(C)Oc1cnc(C(=O)Nc2cccc3c2OC[C@H](C)n2nnnc2-3)cc1-n1cnc(C2CC2)c1` [Example 71, (S)-4-(4-cyclopropyl-1H-imidazol-1-yl)-5-isopropoxy-N-(5-methyl-5,6-dihydrobenzo[f]tetrazolo[1,5-d][1,4]oxazepin-8-yl)picolinamide] gave an IC50 of 5.3 nM.
To `O=C(Nc1cccc2c1OCC(CO)n1cnnc1-2)c1cc(-n2cnc(C3CC3)c2)ccn1` (stereo not drawn) [Example 15, 4-(4-cyclopropyl-1H-imidazol-1-yl)-N-(5-(hydroxymethyl)-5,6-dihydrobenzo[f][1,2,4]triazolo[4,3-d][1,4]oxazepin-8-yl)picolinamide] belongs 5.8 nM; to `CC1(O)CN(c2cnc(C(=O)Nc3cccc4c3OCCn3nnnc3-4)cc2-n2cnc(C3CC3)c2)C1` [Example 67, 4-(4-cyclopropyl-1H-imidazol-1-yl)-N-(5,6-dihydrobenzo[f]tetrazolo[1,5-d][1,4]oxazepin-8-yl)-5-(3-hydroxy-3-methylazetidin-1-yl)picolinamide], 2.6 nM; to `Cc1cc(F)c(C(=O)Nc2cccc3c2OC[C@H](C)n2cnnc2-3)cc1-n1cnc(C2CC2)c1` [Example 2, (S)-5-(4-cyclopropyl-1H-imidazol-1-yl)-2-fluoro-4-methyl-N-(5-methyl-5,6-dihydrobenzo[f][1,2,4]triazolo[4,3-d][1,4]oxazepin-8-yl)benzamide], 9.1 nM.
To `Cc1cc(F)c(C(=O)Nc2cccc3c2OCCn2cncc2-3)cc1-n1cnc(C2CC2)c1` [Example 41, 5-(4-cyclopropyl-1H-imidazol-1-yl)-N-(5,6-dihydrobenzo[f]imidazo[1,5-d][1,4]oxazepin-8-yl)-2-fluoro-4-methylbenzamide] belongs 5.7 nM; to `Cc1cc(F)c(C(=O)Nc2cccc3c2OC[C@H](CF)n2cnnc2-3)cc1-n1cnc(C2CC2)c1` [Example 32, (R)-5-(4-cyclopropyl-1H-imidazol-1-yl)-2-fluoro-N-(5-(fluoromethyl)-5,6-dihydrobenzo[f][1,2,4]triazolo[4,3-d][1,4]oxazepin-8-yl)-4-methylbenzamide], 3.1 nM; to `C[C@@H]1COc2c(NC(=O)c3cc(-n4cnc(C5CC5)c4)ccn3)cccc2-c2nnnn21` [Example 4, (R)-4-(4-cyclopropyl-1H-imidazol-1-yl)-N-(5-methyl-5,6-dihydrobenzo[f]tetrazolo[1,5-d][1,4]oxazepin-8-yl)picolinamide], 5.7 nM.
To `Cc1cc(F)c(C(=O)Nc2cccc3c2OCCn2cnnc2-3)cc1-n1cnc(C2CC2)c1` [Example 7, 5-(4-cyclopropyl-1H-imidazol-1-yl)-N-(5,6-dihydrobenzo[f][1,2,4]triazolo[4,3-d][1,4]oxazepin-8-yl)-2-fluoro-4-methylbenzamide] belongs 8.5 nM; to `O=C(Nc1cccc2c1OCCn1cnnc1-2)c1cc(-n2cnc(C3CC3)c2)c(N2CCOCC2)cn1` [Example 44, 4-(4-cyclopropyl-1H-imidazol-1-yl)-N-(5,6-dihydrobenzo[f][1,2,4]triazolo[4,3-d][1,4]oxazepin-8-yl)-5-morpholinopicolinamide], 15.6 nM.
In turn, `C[C@@H]1COCCN1c1cnc(C(=O)Nc2cccc3c2OCCn2nnnc2-3)cc1-n1cnc(C2CC2)c1` [Example 70, (R)-4-(4-cyclopropyl-1H-imidazol-1-yl)-N-(5,6-dihydrobenzo[f]tetrazolo[1,5-d][1,4]oxazepin-8-yl)-5-(3-methylmorpholino)picolinamide] returned an IC50 of 2.2 nM.
`C[C@@H]1COc2c(NC(=O)c3cc(-n4cnc(C5CC5)c4)c(N4CCOCC4)cn3)cccc2-c2nnnn21` [Example 19, (R)-4-(4-cyclopropyl-1H-imidazol-1-yl)-N-(5-methyl-5,6-dihydrobenzo[f]tetrazolo[1,5-d][1,4]oxazepin-8-yl)-5-morpholinopicolinamide]: half-maximal inhibition (IC50) was put at 2.2 nM.
In the case of `CC(C)Oc1cnc(C(=O)Nc2cccc3c2OC[C@@H](C)n2nnnc2-3)cc1-n1cnc(C2CC2)c1` [Example 69, (R)-4-(4-cyclopropyl-1H-imidazol-1-yl)-5-isopropoxy-N-(5-methyl-5,6-dihydrobenzo[f]tetrazolo[1,5-d][1,4]oxazepin-8-yl)picolinamide], the IC50 turned out to be 4.1 nM.
Next, `Cc1cc(F)c(C(=O)Nc2cccc3c2OCCn2nnnc2-3)cc1-n1cnc(C2CC2)c1` [Example 79, 5-(4-cyclopropyl-1H-imidazol-1-yl)-N-(5,6-dihydrobenzo[f]tetrazolo[1,5-d][1,4]oxazepin-8-yl)-2-fluoro-4-methylbenzamide]: 6.6 nM.
To `C[C@@H]1COc2c(NC(=O)c3cc(-n4cnc(C5CC5)c4)ccn3)cccc2-c2nncn21` [Example 11, (R)-4-(4-cyclopropyl-1H-imidazol-1-yl)-N-(5-methyl-5,6-dihydrobenzo[f][1,2,4]triazolo[4,3-d][1,4]oxazepin-8-yl)picolinamide] belongs 5.4 nM; to `O=C(Nc1cccc2c1OCCn1cnnc1-2)c1cc(-n2cnc(C3CC3)c2)ccn1` [Example 56, 4-(4-cyclopropyl-1H-imidazol-1-yl)-N-(5,6-dihydrobenzo[f][1,2,4]triazolo[4,3-d][1,4]oxazepin-8-yl)picolinamide], 35.2 nM; to `Cc1cc(F)c(C(=O)Nc2cccc3c2OC[C@@H](C)n2cnnc2-3)cc1-n1cnc(C2CC2)c1` [Example 1, (R)-5-(4-cyclopropyl-1H-imidazol-1-yl)-2-fluoro-4-methyl-N-(5-methyl-5,6-dihydrobenzo[f][1,2,4]triazolo[4,3-d][1,4]oxazepin-8-yl)benzamide], 5.8 nM.
To `O=C(Nc1cccc2c1OC[C@@H](CF)n1nnnc1-2)c1cc(-n2cnc(C3CC3)c2)ccn1` [Example 31, (S)-4-(4-cyclopropyl-1H-imidazol-1-yl)-N-(5-(fluoromethyl)-5,6-dihydrobenzo[f]tetrazolo[1,5-d][1,4]oxazepin-8-yl)picolinamide] belongs 5.7 nM; to `O=C(Nc1cccc2c1OC[C@@H](CF)n1cnnc1-2)c1cc(-n2cnc(C3CC3)c2)ccn1` [Example 29, (S)-4-(4-cyclopropyl-1H-imidazol-1-yl)-N-(5-(fluoromethyl)-5,6-dihydrobenzo[f][1,2,4]triazolo[4,3-d][1,4]oxazepin-8-yl)picolinamide], 4.1 nM; to `O=C(Nc1cccc2c1OCC1(CC1)n1cnnc1-2)c1cc(-n2cnc(C3CC3)c2)c(N2CCOCC2)cn1` [Example 25, 4-(4-cyclopropyl-1H-imidazol-1-yl)-5-morpholino-N-(6H-spiro[benzo[f][1,2,4]triazolo[4,3-d][1,4]oxazepine-5,1′-cyclopropan]-8-yl)picolinamide], 3.3 nM.
`CC(C)Oc1cnc(C(=O)Nc2cccc3c2OCCn2nnnc2-3)cc1-n1cnc(C2CC2)c1` [Example 68, 4-(4-cyclopropyl-1H-imidazol-1-yl)-N-(5,6-dihydrobenzo[f]tetrazolo[1,5-d][1,4]oxazepin-8-yl)-5-isopropoxypicolinamide] gave an IC50 of 1.8 nM.
